Experimental findings from patent publication US12435062B2, “Amide compounds and uses thereof” (HUTCHISON MEDIPHARMA LIMITED, priority 2020, dated 2025) are described below.

SMILES strings stand for the structures.

In assay [1] the target is Recombinant human CSF1R kinase (Homo sapiens (Human), UniProt P07333). It is filed as biochemical. The settings on record: Z-LYTE Tyr 1 peptide substrate.
Description: Measurement of CSF1R Kinase Activity at Molecular Level
1. Reagents and materials:
• Z-LYTE™ Tyr 1 peptide substrate: Invitrogen, PV3190; • 5× kinase buffer: Invitrogen, PV3189; • 10 mM ATP: Invitrogen, PV3227; • Development reagent B: Invitrogen, PV3295; • Development buffer: Invitrogen, P3127; • Stopping solution: Invitrogen, P3094; • Recombinant human CSF1R kinase: Invitrogen, PR4598A; • 384 well plate, black: Corning, 3575; Envision: Perkin Elmer. 2. Preparation of reaction solutions
1) 1.33× kinase buffer: 5× kinase buffer was diluted to a 1.33× kinase buffer with ddH2O.
2) Dilution of a 4× test compound: The test compound was diluted in gradient to 4-fold the reaction concentration and the concentration of DMSO was kept at 8%. The final concentration of the compound in reaction was: 1, 0.33, 0.11, 0.037, 0.012, 0.004, 0.0014, 0.00046 μM, and the final concentration of DMSO was 2%.
3) A mixture of kinase/peptide substrate: In 1.33× kinase buffer, the kinase and Z-LYTE™ Tyr 1 peptide substrate were diluted to 0.12 μg/mL and 4 μM, respectively, to prepare a mixture of kinase/peptide substrate. The mixture was mixed gently with a pipette.
4) A phosphorylated peptide substrate solution (PP solution): 0.4 μL of Z-LYTE™ Tyr1 phosphorylated peptide substrate was added to 99.6 μL of 1.33× kinase buffer.
5) ATP solution: 10 mM of ATP was diluted to 760 μM with 1.33× kinase buffer to prepare ATP solution.
6) Development solution: Development reagent B was diluted with Development buffer at a ratio of 1:200.
1) Kinase reaction (10 μL system)
2.5 μL of 4× test compound was added to each reaction well of the 384 plate, and the corresponding volume of 8% DMSO was added to the control well. The plate was placed on ice. 5 μL of a mixture of kinase/peptide substrate, 2.5 μL of kinase buffer and ATP solution were successively added to each well. Three control groups were set up: Group C1 contains only kinase buffer, group C2 contains the mixture of kinase/peptide substrate, kinase buffer and ATP, and group C3 contains 5 μL of PP solution. After adding the reaction components, the 384-well plate was sealed and incubated at 25-30° C. for 1 h in dark.
5 μL of Development solution was added to each well, sealed and incubated at 25-30° C. for another 1 h in dark.
3) Reaction stopping and plate reading
5 μL of stopping solution was added to each well. The Coumarin value (excitation at 400 nm, emission at 445 nm) and Fluorescein value (excitation at 400 nm, emission at 520 nm) were measured, respectively.
ER (emission ratio): Coumarin emission read-out (445 nm)/Fluorescein emission read-out (520 nm); • C3 445 nm: 100% phosphorylated Coumarin emission read-out; • C3 520 nm: 100% phosphorylated Fluorescein emission read-out; • C1 445 nm: 0% phosphorylated Coumarin emission read-out; • C1 520 nm: 0% phosphorylated Fluorescein emission read-out. Inhibition rate % (IR)=[1−% phosphorylation ratetest sample/100% phosphorylation ratecontrol]×100%
% phosphorylation ratetest sample: phosphorylation rate of the test compound; • 100% phosphorylation ratecontrol: phosphorylation rate of C3 control group.
5. IC50 values: calculated by using software XL-Fit™ (version 5.3) supplied by ID Business Solutions (Guildford, UK), which is an additional software to Microsoft Excel.
Assay [2] deals with CSF1R phosphorylation in THP-1 cells (Homo sapiens (Human), UniProt P07333). As to the kind of experiment: Detection of CSF1R phosphorylation activity at cell level (THP-1, M-CSF stimulated, ELISA). The settings on record: p-CSF1R ELISA, compound 60 min, 300 ng/mL M-CSF 1 min. The class given is cell-based. Summed up: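 THP-1 cells (5×10^4/well, RPMI 1640, 2% FBS) were pre-treated with compound for 60 min at 37 °C, then stimulated with 300 ng/mL M-CSF for 1 min and lysed. Phospho-CSF1R was read by sandwich ELISA (p-CSF1R capture, anti-phosphotyrosine-HRP detection, OD 450/570 nm). IC50 was fitted with cell-free wells as background.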
Sequence of CSF1R phosphorylation in THP-1 cells (P07333 20-972): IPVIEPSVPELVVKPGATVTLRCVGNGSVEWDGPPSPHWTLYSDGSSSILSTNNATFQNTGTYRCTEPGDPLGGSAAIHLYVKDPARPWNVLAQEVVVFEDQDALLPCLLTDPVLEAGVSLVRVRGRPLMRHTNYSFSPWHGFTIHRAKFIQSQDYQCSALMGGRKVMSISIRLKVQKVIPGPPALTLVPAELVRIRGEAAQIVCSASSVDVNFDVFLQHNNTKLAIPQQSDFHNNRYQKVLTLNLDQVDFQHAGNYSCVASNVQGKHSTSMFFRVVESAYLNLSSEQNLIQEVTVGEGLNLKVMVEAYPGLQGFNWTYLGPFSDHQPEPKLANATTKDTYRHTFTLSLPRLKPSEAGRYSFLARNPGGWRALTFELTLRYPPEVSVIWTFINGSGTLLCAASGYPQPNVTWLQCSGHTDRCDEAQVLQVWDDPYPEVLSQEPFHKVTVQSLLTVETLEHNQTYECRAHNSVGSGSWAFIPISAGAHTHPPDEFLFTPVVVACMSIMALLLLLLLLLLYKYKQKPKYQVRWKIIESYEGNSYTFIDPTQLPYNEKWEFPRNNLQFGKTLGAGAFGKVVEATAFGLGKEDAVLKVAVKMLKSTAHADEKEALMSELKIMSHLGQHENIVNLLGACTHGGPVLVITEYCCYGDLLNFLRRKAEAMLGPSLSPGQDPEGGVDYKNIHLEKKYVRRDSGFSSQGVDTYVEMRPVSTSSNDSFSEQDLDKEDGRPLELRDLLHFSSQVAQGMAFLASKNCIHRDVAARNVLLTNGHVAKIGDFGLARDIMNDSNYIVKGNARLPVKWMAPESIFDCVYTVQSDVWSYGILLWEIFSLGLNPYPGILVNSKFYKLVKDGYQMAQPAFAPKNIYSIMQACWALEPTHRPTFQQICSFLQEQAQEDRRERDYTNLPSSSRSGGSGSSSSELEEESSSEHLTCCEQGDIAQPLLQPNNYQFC
(In general: In an ELISA, binding on a coated surface is turned into a signal by an enzyme label.)

Assay [3] has as its system Ba/F3^BCR-FMS-11 cells. As to the kind of experiment: Cell proliferation experiment (Ba/F3^BCR-FMS-11, cckit-8). It is filed as cell-based, mouse. The settings on record: Mus musculus, 72 h, Ba/F3^BCR-FMS-11 cell proliferation. Summed up: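 Ba/F3 cells stably expressing BCR-FMS, CSF-1R-dependent for growth, seeded at 5000/well in RPMI 1640 with 10% FBS and exposed to 8 compound concentrations for 72 h at 37 °C.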

Sequence of Recombinant human CSF1R kinase (P07333 20-972): as above

One may read the IC50 as the point on the concentration scale where inhibition reaches its midpoint. Take `CC(C)n1cccc(C(=O)Nc2ccc(Oc3ccnc(Nc4cnn(C)c4)c3)cn2)c1=O` [Compound 96, 1-isopropyl-N-(5-((2-((1-methyl-1H-pyrazol-4-yl)amino)pyridin-4-yl)oxy)pyridin-2-yl)-2-oxo-1,2-dihydropyridine-3-carboxamide]: the IC50 in assay [1] came to 8 nM; in assay [2] it was 8 nM; in assay [3], 10 nM.

On to `Cn1cc(Nc2cc(Oc3ccc(NC(=O)c4cccn(C)c4=O)nc3)ccn2)cn1` [Compound 97], for which the IC50 in assay [1] came out at 18 nM; in assay [2] it was 7 nM; in assay [3], 15 nM.

In the case of `Cn1ncc(-c2cc(Oc3ccc(NC(=O)c4cccn(C)c4=O)nc3)ccn2)n1` [Compound 99, 1-methyl-N-(5-((2-(2-methyl-2H-1,2,3-triazol-4-yl)pyridin-4-yl)oxy)pyridin-2-yl)-2-oxo-1,2-dihydropyridine-3-carboxamide], the IC50 in assay [1] was found to be 70 nM; in assay [2], 748 nM; in assay [3], 534 nM.

Turning to `CC(C)n1cccc(C(=O)Nc2ccc(Oc3ccnc(-c4cn(C)cn4)c3)cn2)c1=O` [Compound 100], the IC50 in assay [1] came to 8 nM; in assay [2], 15 nM; in assay [3], 15 nM.

On to `Cc1ccc(-c2cc(Oc3ccc(NC(=O)c4cccn(C(C)C)c4=O)nc3)ccn2)cn1` [Compound 101], for which the figures for the IC50 in assay [1], in assay [2] and in assay [3] were 7 nM, 22 nM and 31 nM, respectively.

As for `CC(C)n1cccc(C(=O)Nc2ccc(Oc3ccnc(-c4nccn4C)c3)cn2)c1=O` [Compound 102], the IC50 in assay [1] came to 36 nM; in assay [2], 132 nM; in assay [3], 151 nM.

In the case of `CC(C)n1cccc(C(=O)Nc2ccc(Oc3ccnc(-c4cn(C)nn4)c3)cn2)c1=O` [Compound 103], the IC50 came out at 6 nM in assay [1], 7 nM in assay [2] and 9 nM in assay [3].

As to `Cn1cc(-c2cc(Oc3ccc(NC(=O)c4cccn(C5CC5)c4=O)nc3)ccn2)cn1` [Compound 104, 1-cyclopropyl-N-(5-((2-(1-methyl-1H-pyrazol-4-yl)pyridin-4-yl)oxy)pyridin-2-yl)-2-oxo-1,2-dihydropyridine-3-carboxamide], the IC50 is 5 nM in assay [1], 14 nM in assay [2] and 6 nM in assay [3].

`Cn1cc(-c2cc(Oc3ccc(NC(=O)c4ccc(N)n(C)c4=O)nc3)ccn2)cn1` [Compound 105, 6-amino-1-methyl-N-(5-((2-(1-methyl-1H-pyrazol-4-yl)pyridin-4-yl)oxy)pyridin-2-yl)-2-oxo-1,2-dihydropyridine-3-carboxamide]: the IC50 was found to be 9 nM in assay [1], 69 nM in assay [2] and 84 nM in assay [3].

Consider `CNc1ccc(C(=O)Nc2ccc(Oc3ccnc(-c4cnn(C)c4)c3)cn2)c(=O)n1C` [Compound 106, 1-methyl-N-(5-((2-(1-methyl-1H-pyrazol-4-yl)pyridin-4-yl)oxy)pyridin-2-yl)-6-(methylamino)-2-oxo-1,2-dihydropyridine-3-carboxamide], for which the half-inhibitory concentration (IC50) in assay [1] was determined as 7 nM; in assay [2], 10 nM; in assay [3] it was 7 nM.

For the molecule `Cn1cnc(-c2cc(Oc3ccc(NC(=O)c4cccn(C)c4=O)nc3)ccn2)c1` [Compound 107, 1-methyl-N-(5-((2-(1-methyl-1H-imidazol-4-yl)pyridin-4-yl)oxy)pyridin-2-yl)-2-oxo-1,2-dihydropyridine-3-carboxamide], the values for the IC50 in assay [1], in assay [2] and in assay [3] were 9 nM, 17 nM and 35 nM, respectively.

Regarding `CC(C)n1cccc(C(=O)Nc2ncc(Oc3ccnc(-c4cnn(C)c4)c3)cc2F)c1=O` [Compound 108], the IC50 stood at 11 nM in assay [1], 24 nM in assay [2] and 12 nM in assay [3].

For the molecule `Cc1cc(Nc2cc(Oc3ccc(NC(=O)c4cnc(C)n(C)c4=O)nc3)ccn2)n[nH]1` [Compound 111, 1,2-dimethyl-N-(5-((2-((5-methyl-1H-pyrazol-3-yl)amino)pyridin-4-yl)oxy)pyridin-2-yl)-6-oxo-1,6-dihydropyrimidine-5-carboxamide], the IC50 in assay [1] came out at 19 nM; in assay [2] it was 10 nM; in assay [3], 8 nM.

As for `Cc1cc(Nc2cc(Oc3ccc(NC(=O)c4cccn(C)c4=O)nc3)ccn2)n[nH]1` [Compound 112], the IC50 in assay [1] was determined as 19 nM; in assay [2], 10 nM; in assay [3] it was 22 nM.

For `Cc1ncc(C(=O)Nc2ccc(Oc3ccnc(-c4cnn(CCO)c4)c3)cn2)c(=O)n1C` [Compound 113, N-(5-((2-(1-(2-hydroxyethyl)-1H-pyrazol-4-yl)pyridin-4-yl)oxy)pyridin-2-yl)-1,2-dimethyl-6-oxo-1,6-dihydropyrimidine-5-carboxamide], the IC50 in assay [1] is 34 nM; in assay [2] it was 17 nM; in assay [3], 48 nM.

On to `Cc1ncc(-c2cc(Oc3ccc(NC(=O)c4cccn(C)c4=O)nc3)ccn2)s1` [Compound 114], for which the IC50 in assay [1] came out at 42 nM; in assay [2], 35 nM; in assay [3], 79 nM.

For the molecule `Cc1ccc(-c2cc(Oc3ccc(NC(=O)c4cccn(C)c4=O)nc3)ccn2)cn1` [Compound 115], the IC50 came to 46 nM in assay [1], 22 nM in assay [2] and 38 nM in assay [3].

As to `Cc1ncc(C(=O)Nc2ccc(Oc3ccnc(-c4cccs4)c3)cn2)c(=O)n1C` [Compound 116], the IC50 in assay [1] turned out to be 105 nM; in assay [2], 21 nM; in assay [3], 201 nM.

On to `Cc1ncc(C(=O)Nc2ccc(Oc3ccnc(-c4ccn(C)c4)c3)cn2)c(=O)n1C` [Compound 117, 1,2-dimethyl-N-(5-((2-(1-methyl-1H-pyrrol-3-yl)pyridin-4-yl)oxy)pyridin-2-yl)-6-oxo-1,6-dihydropyrimidine-5-carboxamide], for which the IC50 in assay [1] was 7 nM; in assay [2] it was 8 nM; in assay [3] it was 9 nM.

Turning to `Cc1cc(C(=O)Nc2ccc(Oc3ccnc(-c4cnn(C)c4)c3)cn2)c(=O)n(C)c1` [Compound 118], the IC50 in assay [1] is 19 nM; in assay [2], 21 nM; in assay [3], 6 nM.

Consider `Cc1nc(-c2cc(Oc3ccc(NC(=O)c4cnc(C)n(C)c4=O)nc3)ccn2)cs1` [Compound 120], for which the IC50 in assay [1] is 52 nM; in assay [2], 21 nM; in assay [3], 39 nM.

Consider `Cc1ncc(C(=O)Nc2ccc(Cc3ccnc(-c4cnn(C)c4)c3)cn2)c(=O)n1C` [Compound 123, 1,2-dimethyl-N-(5-((2-(1-methyl-1H-pyrazol-4-yl)pyridin-4-yl)methyl)pyridin-2-yl)-6-oxo-1,6-dihydropyrimidine-5-carboxamide], for which the IC50 was 19 nM in assay [1], 16 nM in assay [2] and 25 nM in assay [3].

For `Cc1cc(C(=O)Nc2ccc(Oc3ccnc(-c4ccn(C)c4)c3)cn2)c(=O)n(C)c1` [Compound 124], the IC50 was 16 nM in assay [1], 19 nM in assay [2] and 11 nM in assay [3].

For `CC(C)n1cccc(C(=O)Nc2ccc(Oc3ccnc(-c4ccn(C)c4)c3)cn2)c1=O` [Compound 125], the IC50 was 7 nM in assay [1], 24 nM in assay [2] and 17 nM in assay [3].

Take `CC(C)n1nccc(C(=O)Nc2ccc(Oc3ccnc(-c4ccn(C)c4)c3)cn2)c1=O` [Compound 126]: the IC50 in assay [1] was determined as 25 nM; in assay [2], 30 nM; in assay [3], 28 nM.
